Like-named read-outs stand apart in the source and are kept apart here.

One assay deals with hepatitis C replicon. Nature of the assay: hepatitis C replicon EC50 assay. In kind it is cell-based. As to conditions: Hepatitis C virus. The procedure, abridged: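 First, NS3 and NS4 are complexed; test compounds are then titrated against the complex at room temperature (23° C.) in Tris-HCl buffer, pH 7.5, supplemented with glycerol (15%), LDAO (0.6 mM), DTT (10 mM) and NS4A peptide (25 μM) to give IC50. Separately, replicon cells give EC50.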
On the technique in general: In antiviral work, replicon cells carry a viral genome segment that copies itself.

A further assay has as its target NS3/NS4 complexes (Hepatitis C virus genotype 1a, UniProt P27958). Nature of the assay: NS3/NS4 inhibition assay (IC50). As to conditions: NS3/NS4 activity; 23° C., 25 μM NS4A peptide. In kind it is biochemical. An outline of the steps: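 Enzyme IC50: NS3/NS4 complex, 23° C.; buffer Tris-HCl 50 mM pH 7.5 / glycerol 15% / DTT 10 mM / LDAO 0.6 mM / NS4A peptide 25 μM. Cellular: HCV replicon EC50.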

The mark [1] stands for this setting: hepatitis C replicon, read-out: EC50.

NS3/NS4 complexes, sequence (P27958 1027-1657, one chain of several): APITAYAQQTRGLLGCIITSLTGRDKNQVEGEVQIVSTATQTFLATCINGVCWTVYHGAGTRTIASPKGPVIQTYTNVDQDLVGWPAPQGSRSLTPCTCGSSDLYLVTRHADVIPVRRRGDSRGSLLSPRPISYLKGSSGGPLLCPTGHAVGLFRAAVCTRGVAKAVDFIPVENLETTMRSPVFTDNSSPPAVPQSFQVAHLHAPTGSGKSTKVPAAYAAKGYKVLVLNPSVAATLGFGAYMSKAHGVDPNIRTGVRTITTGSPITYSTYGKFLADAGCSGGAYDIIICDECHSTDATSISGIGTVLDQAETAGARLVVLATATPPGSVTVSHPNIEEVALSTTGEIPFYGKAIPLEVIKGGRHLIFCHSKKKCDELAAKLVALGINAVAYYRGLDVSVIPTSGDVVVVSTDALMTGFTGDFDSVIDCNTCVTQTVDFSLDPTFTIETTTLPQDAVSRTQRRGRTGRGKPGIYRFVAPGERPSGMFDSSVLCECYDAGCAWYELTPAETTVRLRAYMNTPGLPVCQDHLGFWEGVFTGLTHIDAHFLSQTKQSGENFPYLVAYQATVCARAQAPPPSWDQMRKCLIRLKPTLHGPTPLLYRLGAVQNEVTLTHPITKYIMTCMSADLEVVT

Take `COc1ccc2c(O[C@@H]3C[C@H]4C(=O)N[C@]5(C(=O)NS(=O)(=O)C6(C)CC6)C[C@H]5/C=C\CCCCC[C@H](Nc5cccc(F)c5)C(=O)N4C3)nc(-c3nc(C(C)C)cs3)cc2c1` [Compound 1004]: the concentration for a half-maximal effect (EC50) (usually the concentration at which the effect is half-maximal) in the assay with hepatitis C replicon (setting [1]) lay in the range of 10 to 100 nM. The half-inhibitory concentration (IC50) (as a rule, the concentration at which inhibition is half-maximal) against NS3/NS4 complexes was less than 10 nM.
Regarding `CC(C)n1c(O[C@@H]2C[C@H]3C(=O)N[C@]4(C(=O)NS(=O)(=O)C5(C)CC5)C[C@H]4/C=C\CCCCC[C@H](Nc4ccccc4)C(=O)N3C2)nc2c(C(=O)Nc3ccccc3)cccc21` [Compound 273], in the assay with hepatitis C replicon (setting [1]), the EC50 fell in the range of 10 to 100 nM. The same compound displayed a half-maximal inhibitory concentration (IC50) at NS3/NS4 complexes of less than 10 nM.
In the same order, the values of `CC(C)c1nc(-c2cccc3c2nc(O[C@@H]2C[C@H]4C(=O)N[C@]5(C(=O)NS(=O)(=O)N(C)C)C[C@H]5/C=C\CCCCC[C@H](Nc5ccccc5)C(=O)N4C2)n3C(C)C)sc1C(C)C` [Compound 1218] are more than 100 nM and less than 10 nM.
`CC1(S(=O)(=O)NC(=O)[C@@]23C[C@H]2/C=C\CCCCC[C@H](Nc2ccccc2)C(=O)N2C[C@H](n4nc5ccccc5n4)C[C@H]2C(=O)N3)CC1` [Compound 1501]: the EC50 in the assay on hepatitis C replicon (setting [1]) was more than 100 nM. On NS3/NS4 complexes, the IC50 was 10 to 100 nM.
Consider `CC(C)n1c(O[C@@H]2C[C@H]3C(=O)N[C@]4(C(=O)NS(=O)(=O)C5CC5)C[C@H]4/C=C\CCCCC[C@H](NC(=O)OC(C)(C)C)C(=O)N3C2)nc2c(-c3cc(C(F)(F)F)nn3C)cccc21` [Compound 222], for which the EC50 with hepatitis C replicon (setting [1]) is less than 10 nM. At NS3/NS4 complexes, the IC50 was less than 10 nM.
On to `CC(C)n1c(O[C@@H]2C[C@H]3C(=O)N[C@]4(C(=O)NS(=O)(=O)C5(C)CC5)C[C@H]4/C=C\CCCCC[C@H](NC(=O)OC(C)(C)C)C(=O)N3C2)nc2c(-c3cncnc3)cccc21` [Compound 1707], for which the 50% effective concentration (EC50) in the assay with hepatitis C replicon (setting [1]) is less than 10 nM. The IC50 on NS3/NS4 complexes was less than 10 nM.
As for `COc1ccc2c(O[C@@H]3C[C@H]4C(=O)N[C@]5(C(=O)NS(=O)(=O)C6(C)CC6)C[C@H]5/C=C\CCCCC[C@H](Nc5cccc(C(=O)N6CCOCC6Cc6ccccc6)c5)C(=O)N4C3)cc(-c3nc(C(C)C)cs3)nc2c1C` (some centres unmarked) [Compound 122], the EC50 in the assay on hepatitis C replicon (setting [1]) was in the range of 10 to 100 nM. The compound further came in with an IC50 on NS3/NS4 complexes of less than 10 nM.
Take `CC(C)n1c(O[C@@H]2C[C@H]3C(=O)N[C@]4(C(=O)NS(=O)(=O)C5(C)CC5)C[C@H]4/C=C\CCCCC[C@H](NC(=O)OC(C)(C)C)C(=O)N3C2)nc2c(-c3nc(Cc4ccccc4F)cs3)cccc21` [Compound 1720]: the EC50 in the assay on hepatitis C replicon (setting [1]) is less than 10 nM. For the same compound, the half-inhibitory concentration (IC50) against NS3/NS4 complexes was less than 10 nM.
On to `CC(C)n1c(O[C@@H]2C[C@H]3C(=O)N[C@]4(C(=O)NS(=O)(=O)C5(C)CC5)C[C@H]4/C=C\CCCCC[C@H](NC(=O)OC(C)(C)C)C(=O)N3C2)nc2c(-c3nc(-c4ccc(-c5ccccc5)cc4)cs3)cccc21` [Compound 1716], for which, in the assay on hepatitis C replicon (setting [1]), the concentration for a half-maximal effect (EC50) is 10 to 100 nM. The concentration for half-maximal inhibition (IC50) against NS3/NS4 complexes was less than 10 nM.
Regarding `CC(C)(C)OC(=O)N[C@H]1CCCCC/C=C\[C@@H]2C[C@@]2(C(=O)NS(=O)(=O)C2(C)CC2)NC(=O)[C@@H]2C[C@@H](Oc3ccc4c(c3)ncn4-c3ccccc3)CN2C1=O` [Compound 294], the 50% effective concentration (EC50) in the assay on hepatitis C replicon (setting [1]) was more than 100 nM. The same compound showed an IC50 against NS3/NS4 complexes of less than 10 nM.
Regarding `CC(C)n1c(O[C@@H]2C[C@H]3C(=O)N[C@]4(C(=O)NS(=O)(=O)C5(C)CC5)C[C@H]4/C=C\CCCCC[C@H](NC(=O)OC(C)(C)C)C(=O)N3C2)nc2c(-c3cnc(N4CCCC4)cn3)cccc21` [Compound 1705], the EC50 with hepatitis C replicon (setting [1]) was less than 10 nM. The compound also yielded an IC50 against NS3/NS4 complexes of less than 10 nM.
Regarding `CC(C)n1c(O[C@@H]2C[C@H]3C(=O)N[C@]4(C(=O)NS(=O)(=O)C5(C)CC5)C[C@H]4/C=C\CCCCC[C@H](Nc4ccccc4)C(=O)N3C2)nc2c(-c3ccccc3)cccc21` [Compound 203], in the assay with hepatitis C replicon (setting [1]), the EC50 fell in the range of 10 to 100 nM. In addition, the half-inhibitory concentration (IC50) at NS3/NS4 complexes is less than 10 nM.
On to `CC(C)c1csc(-c2cccc3c2nc(O[C@@H]2C[C@H]4C(=O)N[C@]5(C(=O)NS(=O)(=O)C6CC6)C[C@H]5/C=C\CCCCC[C@H](NC(=O)OC(C)(C)C)C(=O)N4C2)n3C(C)C)n1` [Compound 218], for which the EC50 in the assay on hepatitis C replicon (setting [1]) is less than 10 nM. Moreover, the IC50 against NS3/NS4 complexes was less than 10 nM.
Take `CC(C)n1c(O[C@@H]2C[C@H]3C(=O)N[C@]4(C(=O)NS(=O)(=O)N(C)C)C[C@H]4/C=C\CCCCC[C@H](NC(=O)OC(C)(C)C)C(=O)N3C2)nc2c(NC(=O)NCc3ccccc3)cccc21` [Compound 1423]: the EC50 in the assay with hepatitis C replicon (setting [1]) is less than 10 nM. In addition, the half-inhibitory concentration (IC50) against NS3/NS4 complexes is less than 10 nM.
For the compound `CC(C)n1c(O[C@@H]2C[C@H]3C(=O)N[C@]4(C(=O)NS(=O)(=O)C5(C)CC5)C[C@H]4/C=C\CCCCC[C@H](Nc4cccc(F)c4)C(=O)N3C2)nc2c(-c3nc(C4CCCC4)cs3)cccc21` [Compound 1729], the EC50 with hepatitis C replicon (setting [1]) fell in the range of 10 to 100 nM. Further, the IC50 against NS3/NS4 complexes was less than 10 nM.
Take `CC(C)n1c(O[C@@H]2C[C@H]3C(=O)N[C@]4(C(=O)NS(=O)(=O)C5CC5)C[C@H]4/C=C\CCCCC[C@H](NC(=O)OC(C)(C)C)C(=O)N3C2)nc2c(Br)cccc21` [Compound 224]: the EC50 in the assay on hepatitis C replicon (setting [1]) was less than 10 nM. Also, the IC50 against NS3/NS4 complexes is less than 10 nM.
For the compound `CNC(=O)c1cccc2c1nc(O[C@@H]1C[C@H]3C(=O)N[C@]4(C(=O)NS(=O)(=O)N(C)C)C[C@H]4/C=C\CCCCC[C@H](NC(=O)OC(C)(C)C)C(=O)N3C1)n2C(C)C` [Compound 278], the EC50 in the assay on hepatitis C replicon (setting [1]) lay within 10 to 100 nM. Further, on NS3/NS4 complexes, the concentration for half-maximal inhibition (IC50) was less than 10 nM.
Turning to `CC(C)c1ccc2c(c1)nc(O[C@@H]1C[C@H]3C(=O)N[C@]4(C(=O)NS(=O)(=O)N(C)C)C[C@H]4/C=C\CCCCC[C@H](NC(=O)OC(C)(C)C)C(=O)N3C1)n2C(C)C` [Compound 289], the EC50 with hepatitis C replicon (setting [1]) lay within 10 to 100 nM. In addition, at NS3/NS4 complexes, the IC50 was less than 10 nM.
On to `CCCc1nc(-c2cccc3c2nc(O[C@@H]2C[C@H]4C(=O)N[C@]5(C(=O)NS(=O)(=O)C6(C)CC6)C[C@H]5/C=C\CCCCC[C@H](NC(=O)OC(C)(C)C)C(=O)N4C2)n3C(C)C)sc1C` [Compound 1210], for which, in the assay on hepatitis C replicon (setting [1]), the EC50 was less than 10 nM. At NS3/NS4 complexes, this compound showed a 50% inhibitory concentration (IC50) of less than 10 nM.
The compound `CC(C)n1c(O[C@@H]2C[C@H]3C(=O)N[C@]4(C(=O)NS(=O)(=O)N(C)C)C[C@H]4/C=C\CCCCC[C@H](NC(=O)OC(C)(C)C)C(=O)N3C2)nc2c(C(=O)NCCc3ccccc3)cccc21` [Compound 284] displayed a half-maximal effective concentration (EC50) with hepatitis C replicon of less than 10 nM. Also, on NS3/NS4 complexes, the IC50 was less than 10 nM.
On to `CC(C)n1c(O[C@@H]2C[C@H]3C(=O)N[C@]4(C(=O)NS(=O)(=O)N(C)C)C[C@H]4/C=C\CCCCC[C@H](NC(=O)OC(C)(C)C)C(=O)N3C2)nc2c(-c3nc(Cc4ccc(F)cc4)cs3)cccc21` [Compound 1759], for which the EC50 in the assay on hepatitis C replicon (setting [1]) was less than 10 nM. Also, the 50% inhibitory concentration (IC50) against NS3/NS4 complexes was less than 10 nM.
In the case of `COc1ccc2c(O[C@@H]3C[C@H]4C(=O)N[C@]5(C(=O)NS(=O)(=O)C6(C)CC6)C[C@H]5/C=C\CCCCC[C@H](Nc5ccccn5)C(=O)N4C3)cc(-c3nc(C(C)C)cs3)nc2c1C` [Compound 1002], the concentration giving a half-maximal response (EC50) in the assay on hepatitis C replicon (setting [1]) was less than 10 nM. This compound showed an IC50 on NS3/NS4 complexes of less than 10 nM.
As to `CC(C)Cc1nc2ccccc2nc1O[C@@H]1C[C@H]2C(=O)N[C@]3(C(=O)NS(=O)(=O)N(C)C)C[C@H]3/C=C\CCCCC[C@H](NC(=O)OC(C)(C)C)C(=O)N2C1` [Compound 307], the EC50 with hepatitis C replicon (setting [1]) fell in the range of 10 to 100 nM. Moreover, the 50% inhibitory concentration (IC50) against NS3/NS4 complexes is less than 10 nM.
Taken in the same sequence, the figures for `CC(C)n1cnc2cnc(O[C@@H]3C[C@H]4C(=O)N[C@]5(C(=O)NS(=O)(=O)C6CC6)C[C@H]5/C=C\CCCCC[C@H](NC(=O)OC(C)(C)C)C(=O)N4C3)nc21` [Compound 505] were more than 100 nM and less than 10 nM.
Take `CC(C)n1c(O[C@@H]2C[C@H]3C(=O)N[C@]4(C(=O)NS(=O)(=O)N(C)C)C[C@H]4/C=C\CCCCC[C@H](NC(=O)OC(C)(C)C)C(=O)N3C2)nc2c(-c3nc(C4CCC4)cs3)cccc21` [Compound 1766]: the EC50 in the assay with hepatitis C replicon (setting [1]) is less than 10 nM. Moreover, the half-maximal inhibitory concentration (IC50) against NS3/NS4 complexes was less than 10 nM.

Values taken from patent US20110081315A1, “NOVEL MACROCYCLIC INHIBITORS OF HEPATITIS C VIRUS REPLICATION” (INTERMUNE, INC., priority 2009, published 2011).
